Columns and labels:
[1] = General toxicity after repeated administration, rabbits; details: rabbit, in vivo, topical or ocular, dermal, for 28 days, repeated administration (except for local toxicity), read-out: NOEL (no observable effect level) dermal
Excerpt: (§1) General toxicity after repeated administration NOEL (no observable effect level)

[2] = General toxicity after repeated administration, rats; details: rat, in vivo, iv, for 28 days, read-out: NOEL (no observable effect level) i.v.
Excerpt: as §1

rats = assay: Acute toxicity; assay type: in vivo

SMILES: Cc1cc2nc3c4ccccc4n(CCN(C)C)c3nc2cc1C [compound II, 2,3-dimethyl-6-(N,N-dimethylaminoethyl)-6H-indoloquinoxaline]
- NOAEL at 672 h [1]: 200 mg/kg
- NOAEL at 672 h [2]: 12.5 mg/kg
- LD i.v. (rats; i.v.): > 100 mg/kg
- LD p.o. (rats; p.o.): > 800 mg/kg
